Assay results as given in US9708359B2, “Pyrrolopyrimidine nucleosides and analogs thereof” (Chimerix, Inc., priority 2015, dated 2017).

Tests used:
[1] = tested on: Flu (H1N1); assay: microbe, parasite or virus in culture; type: cell-based; conditions: Influenza A virus, MDCK cells
[2] = in vitro; conditions: human
[3] = tested on: EBV; assay: DNA quantitation assay for EBV; type: cell-based, Epstein-Barr virus; conditions: human gammaherpesvirus 4, Akata cells
Description: DNA Quantitation Assays for EBV and HHV-6B:
Assays for EBV were performed in Akata cells that were induced to undergo a lytic infection with goat anti-human IgG antibody by standard methods. Experimental compounds were diluted in plates. Akata cells were added to the plates and incubated. For HHV-6, compounds were serially diluted then uninfected HSB-2 or Molt-3 cells were added to each well. Infection was initiated by adding HHV-6A infected HSB-2 cells, or HHV-6B infected Molt-3 cells, and incubated for 7 d at 37° C. For all assays, denaturation buffer was added to each well to denature the DNA and an aliquot was aspirated through a nylon membrane. The membranes were then allowed to dry before equilibration in DIG. Specific digoxigenin (DIG)-labeled probes were prepared for each virus according to the manufacturer's protocol. Detection of specifically bound DIG probe was performed with anti-DIG antibody using the manufacturer's protocol. An image of the photographic film was captured and quantified and compound concentrations sufficient to reduce the accumulation of viral DNA by 50% (EC50), were interpolated from the experimental data.
Assays for EBV were performed in Akata cells that were induced to undergo a lytic infection with 50 μg/mL of a goat anti-human IgG antibody by standard methods. […]

## Cc1nc(N)c2c(C(N)=O)cn([C@@H]3O[C@H](CO)[C@@H](O)[C@H]3O)c2n1 [Compound 1, 4-amino-7-((2R,3R,4S,5R)-3,4-dihydroxy-5-(hydroxymethyl)tetrahydrofuran-2-yl)-2-methyl-7H-pyrrolo[2,3-d]pyrimidine-5-carboxamide]
[1]
  EC50: > 100 µM
[2]
  CC50: > 60 µM
[3]
  EC50: 7.15 µM
